Patent US6517808B1, “Methods for boron delivery to mammalian tissue” (The Regents of the University of California, priority 1993, dated 2003)

Columns and labels:
EMT6 tumors = experiment: murine biodistribution study (boron concentration in tissues by ICP-AES); type: in vivo, BALB/c mice
Description: The concentration of boron can be determined by inductively coupled plasma atomic emission spectroscopy (ICP-AES).
All murine biodistribution studies utilized female BALB/c mice (16-20 g), with EMT6 tumors implanted in the right flank 7-10 days prior to the experiment. […] Injections of liposome emulsions (200 μl) were made in the tail vein. Prior to sacrifice, each mouse was anesthetized with halothane and bled into heparinized syringes via cardiac puncture. The blood was then placed into tared cryogenic tubes. While under anesthesia, the mice were euthanized via cervical dislocation. The tumor, liver, and spleen were dissected and also placed in tared cryogenic tubes. Blood and tissues were stored frozen until analyzed.
Biodistributions are plotted as boron concentration in micrograms of boron per gram of tissue on the Y axis and time in hours on the X axis. In general, four tissues are analyzed: tumor and blood because of their therapeutic interest, and liver and spleen because these tissues are known to competitively bind liposomes in vivo.

[1] = chemical stability of borane anions towards water / moisture; type: physicochemical
Excerpt: The cleanest reaction is observed employing [Ph3PMe][B10H10] in CH2Cl2, but the reaction can be used with several salts of [B10H10]^2− including preferably cesium. tetramethylammonium and triethylammoniuim and with other solvents such as acetonitrile and tetrahydrofuran. […] The substituted boron is indicated by a high field resonance at −43.8 ppm (relative to BF3. Et2O) which is a singlet in the proton coupled spectrum. [Ph3PMe][2-B10H9CO] may be isolated a a light tan solid in 85% yield, or the reaction mixture may be used directly in further reactions. […] [Ph3PMe]2[2-B10H9CO2H] has been confirmed by crystallographic analysis.
A very useful transformation of [2-B10H9CO]^− occurs from its reaction with azide ion in acetonitrile. The carbonyl undergoes a Curtius-type rearrangement to form the isocyanate [2-B10H9NCO]^2−, indicated by an infrared absorption at 2304 cm^−1. […] The [2-B10H9CO]^− ion therefore offers a high-yield route to the production of many boron-rich species for boron neutron capture therapy. Detailed protocols of preparing certain of these species is as follows: […]

Na2B10H10 [reference compound]
tumor uptake begins at (initial tumor boron concentration) (EMT6 tumors; FIG. 4, BALB/c mice bearing EMT6 tumors, tail vein injection): 10 µg/g

Na3B20H17NH3 [free Na3B20H17NH3]
initial distribution (accumulation) in the tumor (EMT6 tumors; FIG. 10, free, not liposome-encapsulated, injected in buffer): about 8 ppm

[2-B10H9CO]^−
sensitivity to moisture ([1]; in the solid state or in solution): relatively insensitive to moisture

[2-B10H9NCO]^2−
stability in acidic media ([1]; acidic media): rapidly hydrolyzed | stability in neutral aqueous solution ([1]; neutral aqueous solution): stable
